Organism: Rattus norvegicus
Assay: Open TG-GATES - Regimen: Single
Type: toxicity, organism-based, Sprague-Dawley
Parameters: regimen Single, gender Male, age 6 weeks
Details: in vivo, po, 10 mg/kg, route gavage, dose level Low; for APTT / Bas / Eos / Fbg / Hb / Ht / Lym / MCH / MCHC / MCV / Mono / Neu / PT / Plat / RBC / Ret / WBC: tissue Blood; for KIDNEY_L / KIDNEY_R / KIDNEY_TOTAL: tissue Kidney; for LIVER: tissue Liver; for A/G / ALP / ALT / AST / BUN / CRE / Ca / Cl / DBIL / GLC / IP / K / LDH / Na / PL / RALB / TBIL / TC / TG / TP / gamma-GTP: tissue Plasma

Question: How did the TERMINAL_BW (9 h) turn out when CCCc1cc(=O)[nH]c(=S)[nH]1 [PROPYLTHIOURACIL] was run?
Answer: 177.5 g

Question: And the APTT (9 h)?
Answer: 16 s

Question: And the Bas (9 h)?
Answer: 0%

Question: And the Eos (9 h)?
Answer: 1.4%

Question: And the Fbg (9 h)?
Answer: 214.2 mg/dL

Question: What about the Hb (9 h) of the same compound?
Answer: 13.1 g/dL

Question: And the Ht (9 h)?
Answer: 39.3%

Question: What about the Lym (9 h) of the same compound?
Answer: 67%

Question: What about the MCH (9 h) of the same compound?
Answer: 22 pg

Question: And the MCHC (9 h)?
Answer: 33.3%

Question: What about the MCV (9 h) of the same compound?
Answer: 66 fL

Question: What about the Mono (9 h) of the same compound?
Answer: 11.8%

Question: What about the Neu (9 h) of the same compound?
Answer: 19.6%

Question: What about the PT (9 h) of the same compound?
Answer: 12.9 s

Question: What about the Plat (9 h) of the same compound?
Answer: 109.3 x10_4/uL

Question: And the RBC (9 h)?
Answer: 596 x10_4/ul

Question: And the Ret (9 h)?
Answer: 10.2%

Question: And the WBC (9 h)?
Answer: 70.1 x10_2/uL

Question: What about the KIDNEY_L (9 h) of the same compound?
Answer: 0.8 g

Question: What about the KIDNEY_R (9 h) of the same compound?
Answer: 0.9 g

Question: What about the KIDNEY_TOTAL (9 h) of the same compound?
Answer: 1.7 g

Question: What about the LIVER (9 h) of the same compound?
Answer: 7.7 g

Question: And the A/G (9 h)?
Answer: 2.1

Question: And the ALP (9 h)?
Answer: 791.6 IU/L

Question: What about the ALT (9 h) of the same compound?
Answer: 32 IU/L

Question: What about the AST (9 h) of the same compound?
Answer: 59.2 IU/L

Question: And the BUN (9 h)?
Answer: 12.8 mg/dL

Question: What about the CRE (9 h) of the same compound?
Answer: 0.4 mg/dL

Question: What about the Ca (9 h) of the same compound?
Answer: 10.7 mg/dL

Question: And the Cl (9 h)?
Answer: 106.4 meq/L

Question: And the DBIL (9 h)?
Answer: 0.01 mg/dL

Question: What about the GLC (9 h) of the same compound?
Answer: 192.6 mg/dL

Question: What about the IP (9 h) of the same compound?
Answer: 10.7 mg/dL

Question: What about the K (9 h) of the same compound?
Answer: 5.3 meq/L

Question: What about the LDH (9 h) of the same compound?
Answer: 84.2 IU/L

Question: What about the Na (9 h) of the same compound?
Answer: 138.2 meq/L

Question: And the PL (9 h)?
Answer: 135 mg/dL

Question: What about the RALB (9 h) of the same compound?
Answer: 3.6 g/dL

Question: What about the TBIL (9 h) of the same compound?
Answer: 0.4 mg/dL

Question: What about the TC (9 h) of the same compound?
Answer: 73.4 mg/dL

Question: What about the TG (9 h) of the same compound?
Answer: 38.8 mg/dL

Question: And the TP (9 h)?
Answer: 5.4 g/dL

Question: And the gamma-GTP (9 h)?
Answer: 1.4 IU/L

Question: And the TERMINAL_BW (24 h)?
Answer: 193.7 g

Question: What about the APTT (24 h) of the same compound?
Answer: 16.3 s

Question: And the Bas (24 h)?
Answer: 0%

Question: What about the Eos (24 h) of the same compound?
Answer: 1%

Question: What about the Fbg (24 h) of the same compound?
Answer: 209.4 mg/dL

Question: What about the Hb (24 h) of the same compound?
Answer: 13 g/dL

Question: And the Ht (24 h)?
Answer: 39.1%

Question: And the Lym (24 h)?
Answer: 77.2%

Question: And the MCH (24 h)?
Answer: 21.7 pg

Question: And the MCHC (24 h)?
Answer: 33.1%

Question: What about the MCV (24 h) of the same compound?
Answer: 65.4 fL

Question: And the Mono (24 h)?
Answer: 7.2%

Question: What about the Neu (24 h) of the same compound?
Answer: 14.8%

Question: What about the PT (24 h) of the same compound?
Answer: 12.3 s

Question: And the Plat (24 h)?
Answer: 102.3 x10_4/uL

Question: And the RBC (24 h)?
Answer: 598.4 x10_4/ul

Question: And the Ret (24 h)?
Answer: 9.7%

Question: What about the WBC (24 h) of the same compound?
Answer: 90 x10_2/uL

Question: What about the KIDNEY_L (24 h) of the same compound?
Answer: 0.9 g

Question: What about the KIDNEY_R (24 h) of the same compound?
Answer: 0.9 g

Question: And the KIDNEY_TOTAL (24 h)?
Answer: 1.8 g

Question: What about the LIVER (24 h) of the same compound?
Answer: 9.5 g

Question: What about the A/G (24 h) of the same compound?
Answer: 2.1

Question: And the ALP (24 h)?
Answer: 908.8 IU/L

Question: And the ALT (24 h)?
Answer: 39.8 IU/L

Question: And the AST (24 h)?
Answer: 65.6 IU/L

Question: And the BUN (24 h)?
Answer: 18.8 mg/dL

Question: What about the CRE (24 h) of the same compound?
Answer: 0.5 mg/dL

Question: What about the Ca (24 h) of the same compound?
Answer: 11 mg/dL

Question: And the Cl (24 h)?
Answer: 106.6 meq/L

Question: And the DBIL (24 h)?
Answer: 0.008 mg/dL

Question: And the GLC (24 h)?
Answer: 182.6 mg/dL

Question: What about the IP (24 h) of the same compound?
Answer: 7.3 mg/dL

Question: What about the K (24 h) of the same compound?
Answer: 5.2 meq/L

Question: And the LDH (24 h)?
Answer: 85.8 IU/L

Question: What about the Na (24 h) of the same compound?
Answer: 139.4 meq/L

Question: And the PL (24 h)?
Answer: 166.4 mg/dL

Question: And the RALB (24 h)?
Answer: 3.8 g/dL

Question: What about the TBIL (24 h) of the same compound?
Answer: 0.3 mg/dL

Question: And the TC (24 h)?
Answer: 94.8 mg/dL

Question: What about the TG (24 h) of the same compound?
Answer: 97.6 mg/dL

Question: And the TP (24 h)?
Answer: 5.6 g/dL

Question: What about the gamma-GTP (24 h) of the same compound?
Answer: 2.8 IU/L

Source: ChEMBL document CHEMBL3885861, “Open TG-GATES”
